Data from article PMC7840908 (Communications Biology, 2021).
Where “and” joins values, the source holds several entries; their conditions need not be identical. Equal entries are not always repeated. Entries after “also recorded” stand apart in the source; their conditions may differ.

Assays:
Type in all cases: binding
MERS-CoV macro domain [1] = biological target: T1, MERS-CoV macro domain (Middle East respiratory syndrome-related coronavirus, UniProt K9N638)
MERS-CoV macro domain [2] = biological target: T1, MERS-CoV macro domain; remark: listed apart in the source
MERS-CoV macro domain [3] = biological target: T1, MERS-CoV macro domain; remark: listed apart in the source
MERS-CoV macro domain [4] = biological target: T1, MERS-CoV macro domain; remark: listed apart in the source

T1 sequence (K9N638 1110-1276 limits assumed): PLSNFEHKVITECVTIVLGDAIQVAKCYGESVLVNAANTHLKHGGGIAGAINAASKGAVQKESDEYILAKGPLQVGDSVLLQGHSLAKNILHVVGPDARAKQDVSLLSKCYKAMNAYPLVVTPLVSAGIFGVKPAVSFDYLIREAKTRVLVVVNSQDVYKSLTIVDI

Nc1ncnc2c1ncn2[C@@H]1O[C@H](COP(=O)(O)OP(=O)(O)O)[C@@H](O)[C@H]1O [ADP, adenosine diphosphate]
NMR CSP, residue 11 (MERS-CoV macro domain [1]): 0.01279 and 0.006701 | NMR CSP, residue 29 (MERS-CoV macro domain [1]): 0.01328 and 0.01691 | NMR CSP, residue 36 (MERS-CoV macro domain [1]): 0.05057 | NMR CSP, residue 37 (MERS-CoV macro domain [1]): 0.07911 | NMR CSP, residue 46 (MERS-CoV macro domain [1]): 0.3834 | NMR CSP, residue 47 (MERS-CoV macro domain [1]): 0.05654 and 0.03639 | NMR CSP, residue 48 (MERS-CoV macro domain [1]): 0.08159 and 0.1212 | NMR CSP, residue 67 (MERS-CoV macro domain [1]): 0.0178 and 0.009143 | NMR CSP, residue 75 (MERS-CoV macro domain [1]): 0.05887 and 0.06181 | NMR CSP, residue 94 (MERS-CoV macro domain [1]): 0.1393 | NMR CSP, residue 101 (MERS-CoV macro domain [1]): 0.03691 and 0.02294 | NMR CSP, residue 125 (MERS-CoV macro domain [1]): 0.08579 | NMR CSP, residue 130 (MERS-CoV macro domain [1]): 0.08457 and 0.1167 | NMR CSP, residue 132 (MERS-CoV macro domain [1]): 0.01774 and 0.01343 | NMR CSP, residue 149 (MERS-CoV macro domain [1]): 0.01454 | NMR CSP, residue 154 (MERS-CoV macro domain [1]): 0.08237 | NMR CSP, residue 156 (MERS-CoV macro domain [1]): 0.2276 | Melting temperature (Tm) of the MERS-CoV macro domain in complex, CD (MERS-CoV macro domain [2]): 43.7 °C | Melting temperature (Tm) of the MERS-CoV macro domain in complex, DSF (MERS-CoV macro domain [3]): 44.5 °C | n (stoichiometry of binding) (MERS-CoV macro domain [4]): 1.08 ± 0.06 | ΔH (MERS-CoV macro domain [4]): -3.85 ± 1.8 kcal/mol | −TΔS (MERS-CoV macro domain [4]): -1.86 ± 1.51 kcal/mol

Nc1ncnc2c1ncn2C1OC(COP(=O)(O)O)C(O)C1O (centres unmarked) [AMP, adenosine monophosphate]
NMR CSP, residue 12 (MERS-CoV macro domain [1]): 0.007029 and 0.005468 | NMR CSP, residue 22 (MERS-CoV macro domain [1]): 0.06732 and 0.05323 | NMR CSP, residue 23 (MERS-CoV macro domain [1]): 0.01249 and 0.01858 | NMR CSP, residue 31 (MERS-CoV macro domain [1]): 0.03059 and 0.02592 | NMR CSP, residue 55 (MERS-CoV macro domain [1]): 0.07284 and 0.04017 | NMR CSP, residue 67 (MERS-CoV macro domain [1]): 0.009649 and 0.005916 | NMR CSP, residue 70 (MERS-CoV macro domain [1]): 0.01453 and 0.01754 | NMR CSP, residue 71 (MERS-CoV macro domain [1]): 0.01269 and 0.01423 | NMR CSP, residue 78 (MERS-CoV macro domain [1]): 0.004301 and 0.003017 | NMR CSP, residue 81 (MERS-CoV macro domain [1]): 0.019 and 0.02485 | NMR CSP, residue 85 (MERS-CoV macro domain [1]): 0.01205 and 0.01581 | NMR CSP, residue 90 (MERS-CoV macro domain [1]): 0.01829 and 0.02265 | NMR CSP, residue 99 (MERS-CoV macro domain [1]): 0.0122 and 0.008579 | NMR CSP, residue 110 (MERS-CoV macro domain [1]): 0.01629 and 0.01233 | NMR CSP, residue 130 (MERS-CoV macro domain [1]): 0.0583 and 0.06532 | NMR CSP, residue 138 (MERS-CoV macro domain [1]): 0.02281 and 0.03131 | NMR CSP, residue 153 (MERS-CoV macro domain [1]): 0.05051 | NMR CSP, residue 156 (MERS-CoV macro domain [1]): 0.1498 | NMR CSP, residue 161 (MERS-CoV macro domain [1]): 0.003728 and 0.003225 | NMR chemical shift perturbation behaviour / exchange regime (MERS-CoV macro domain [1]): fast-exchange; also recorded: almost no chemical shift perturbation | Melting temperature (Tm) of the MERS-CoV macro domain in complex, CD (MERS-CoV macro domain [2]): 44.0 °C | Melting temperature (Tm) of the MERS-CoV macro domain in complex, DSF (MERS-CoV macro domain [3]): 42.5 °C | n (stoichiometry of binding) (MERS-CoV macro domain [4]): 1.05 ± 0.38 | ΔH (MERS-CoV macro domain [4]): -2.674 ± 0.722 kcal/mol | −TΔS (MERS-CoV macro domain [4]): -2.419 ± 0.571 kcal/mol

Nc1ncnc2c1ncn2[C@@H]1O[C@H](COP(=O)(O)OP(=O)(O)OP(=O)(O)O)[C@@H](O)[C@H]1O [ATP, adenosine triphosphate]
NMR CSP, residue 4 (MERS-CoV macro domain [1]): 0.02128 and 0.03079 | NMR CSP, residue 8 (MERS-CoV macro domain [1]): 0.08407 and 0.1389 | NMR CSP, residue 11 (MERS-CoV macro domain [1]): 0.01204 and 0.01003 | NMR CSP, residue 12 (MERS-CoV macro domain [1]): 0.02593 and 0.01302 | NMR CSP, residue 13 (MERS-CoV macro domain [1]): 0.02822 and 0.05324 | NMR CSP, residue 15 (MERS-CoV macro domain [1]): 0.05255 and 0.08443 | NMR CSP, residue 16 (MERS-CoV macro domain [1]): 0.08559 and 0.1065 | NMR CSP, residue 19 (MERS-CoV macro domain [1]): 0.2213 and 0.3991 | NMR CSP, residue 20 (MERS-CoV macro domain [1]): 0.5582 and 0.5971 | NMR CSP, residue 24 (MERS-CoV macro domain [1]): 0.02113 and 0.02272 | NMR CSP, residue 27 (MERS-CoV macro domain [1]): 0.04023 and 0.04654 | NMR CSP, residue 31 (MERS-CoV macro domain [1]): 0.01765 and 0.03281 | NMR CSP, residue 32 (MERS-CoV macro domain [1]): 0.03557 and 0.06867 | NMR CSP, residue 33 (MERS-CoV macro domain [1]): 0.003317 and 0.005514 | NMR CSP, residue 35 (MERS-CoV macro domain [1]): 0.08722 and 0.0586 | NMR CSP, residue 41 (MERS-CoV macro domain [1]): 0.07865 and 0.1421 | NMR CSP, residue 42 (MERS-CoV macro domain [1]): 0.02022 and 0.03875 | NMR CSP, residue 44 (MERS-CoV macro domain [1]): 0.117 and 0.1567 | NMR CSP, residue 46 (MERS-CoV macro domain [1]): 0.2082 and 0.117 | NMR CSP, residue 49 (MERS-CoV macro domain [1]): 0.1963 and 0.3148 | NMR CSP, residue 52 (MERS-CoV macro domain [1]): 0.1171 and 0.2037 | NMR CSP, residue 53 (MERS-CoV macro domain [1]): 0.06017 and 0.08476 | NMR CSP, residue 54 (MERS-CoV macro domain [1]): 0.04378 and 0.08204 | NMR CSP, residue 55 (MERS-CoV macro domain [1]): 0.03609 and 0.04139 | NMR CSP, residue 56 (MERS-CoV macro domain [1]): 0.1144 | NMR CSP, residue 59 (MERS-CoV macro domain [1]): 0.1073 and 0.0995 | NMR CSP, residue 64 (MERS-CoV macro domain [1]): 0.02081 and 0.02918 | NMR CSP, residue 67 (MERS-CoV macro domain [1]): 0.009187 and 0.006075 | NMR CSP, residue 68 (MERS-CoV macro domain [1]): 0.007457 and 0.01342 | NMR CSP, residue 69 (MERS-CoV macro domain [1]): 0.006641 and 0.01241 | NMR CSP, residue 70 (MERS-CoV macro domain [1]): 0.007029 and 0.01308 | NMR CSP, residue 74 (MERS-CoV macro domain [1]): 0.01357 and 0.01451 | NMR CSP, residue 76 (MERS-CoV macro domain [1]): 0.1087 and 0.1584 | NMR CSP, residue 79 (MERS-CoV macro domain [1]): 0.06062 and 0.09243 | NMR CSP, residue 80 (MERS-CoV macro domain [1]): 0.02546 and 0.0359 | NMR CSP, residue 82 (MERS-CoV macro domain [1]): 0.03386 and 0.028 | NMR CSP, residue 88 (MERS-CoV macro domain [1]): 0.01281 and 0.02472 | NMR CSP, residue 91 (MERS-CoV macro domain [1]): 0.02979 and 0.05588 | NMR CSP, residue 92 (MERS-CoV macro domain [1]): 0.05948 and 0.09574 | NMR CSP, residue 98 (MERS-CoV macro domain [1]): 0.08735 and 0.113 | NMR CSP, residue 99 (MERS-CoV macro domain [1]): 0.04875 and 0.06519 | NMR CSP, residue 101 (MERS-CoV macro domain [1]): 0.01539 and 0.022 | NMR CSP, residue 102 (MERS-CoV macro domain [1]): 0.003066 | NMR CSP, residue 104 (MERS-CoV macro domain [1]): 0.03263 and 0.04354 | NMR CSP, residue 105 (MERS-CoV macro domain [1]): 0.0458 and 0.08781 | NMR CSP, residue 108 (MERS-CoV macro domain [1]): 0.03048 and 0.01721 | NMR CSP, residue 109 (MERS-CoV macro domain [1]): 0.0202 and 0.03155 | NMR CSP, residue 111 (MERS-CoV macro domain [1]): 0.0136 and 0.02579 | NMR CSP, residue 113 (MERS-CoV macro domain [1]): 0.02518 and 0.03785 | NMR CSP, residue 117 (MERS-CoV macro domain [1]): 0.02758 and 0.03325 | NMR CSP, residue 119 (MERS-CoV macro domain [1]): 0.05435 and 0.04262 | NMR CSP, residue 122 (MERS-CoV macro domain [1]): 0.04092 and 0.06158 | NMR CSP, residue 125 (MERS-CoV macro domain [1]): 0.4401 and 0.7457 | NMR CSP, residue 126 (MERS-CoV macro domain [1]): 0.163 and 0.2535 | NMR CSP, residue 131 (MERS-CoV macro domain [1]): 0.1039 and 0.07453 | NMR CSP, residue 132 (MERS-CoV macro domain [1]): 0.1244 and 0.1155 | NMR CSP, residue 135 (MERS-CoV macro domain [1]): 0.05654 and 0.08994 | NMR CSP, residue 136 (MERS-CoV macro domain [1]): 0.05575 and 0.07379 | NMR CSP, residue 138 (MERS-CoV macro domain [1]): 0.04766 and 0.08654 | NMR CSP, residue 139 (MERS-CoV macro domain [1]): 0.05001 and 0.03334 | NMR CSP, residue 140 (MERS-CoV macro domain [1]): 0.07046 and 0.09693 | NMR CSP, residue 144 (MERS-CoV macro domain [1]): 0.02987 and 0.05222 | NMR CSP, residue 148 (MERS-CoV macro domain [1]): 0.04492 and 0.05905 | NMR CSP, residue 149 (MERS-CoV macro domain [1]): 0.04139 and 0.04999 | NMR CSP, residue 151 (MERS-CoV macro domain [1]): 0.03194 and 0.04624 | NMR CSP, residue 152 (MERS-CoV macro domain [1]): 0.2468 | NMR CSP, residue 153 (MERS-CoV macro domain [1]): 0.1157 and 0.09952 | NMR CSP, residue 155 (MERS-CoV macro domain [1]): 0.2226 and 0.3418 | NMR CSP, residue 156 (MERS-CoV macro domain [1]): 0.03888 | NMR CSP, residue 158 (MERS-CoV macro domain [1]): 0.03042 and 0.04983 | NMR CSP, residue 159 (MERS-CoV macro domain [1]): 0.008826 and 0.007483 | NMR CSP, residue 161 (MERS-CoV macro domain [1]): 0.02817 and 0.01678 | NMR CSP, residue 164 (MERS-CoV macro domain [1]): 0.03315 and 0.0552 | Melting temperature (Tm) of the MERS-CoV macro domain in complex, CD (MERS-CoV macro domain [2]): 44.4 °C | Melting temperature (Tm) of the MERS-CoV macro domain in complex, DSF (MERS-CoV macro domain [3]): 43.0 °C | n (stoichiometry of binding) (MERS-CoV macro domain [4]): 1.28 ± 0.23 | ΔH (MERS-CoV macro domain [4]): -0.103 ± 0.0621 kcal/mol | −TΔS (MERS-CoV macro domain [4]): -4.725 ± 0.115 kcal/mol
